Patent US20200397894A1, “COMPOSITIONS AND METHODS FOR TREATING CANCER” (University of Virginia Patent Foundation, priority 2016, published 2020)

Legend:
[1] = test system: non-malignant melanocytes PIG3V; test: Rereplication by FACS in non-malignant melanocytes; format: cell-based, human; conditions: 48 hours following treatment
Experimental: (§1) The effects of pevonedistat, vemurafenib, and/or silencing of various cell cycle-associated proteins by siRNA on cell cycle distribution and rereplication were assessed by propidium iodide staining and flow cytometry of asynchronous melanoma cultures. Synchronization of cells was not employed to avoid bias and to be able to measure the impact of these perturbations on proliferating cancer cells. Briefly, asynchronous melanoma cell lines were treated with pevonedistat or vemurafenib, or transfected with si-CDT1, si-CDT2, si-SET8, si-p21, sigeminin, si-EMI1, or si-GL2 for a time ranging from 24 to 96 hours. Cells were washed with cold PBS, harvested, and fixed in 70% (v/v) ethanol. Cells were subsequently treated with 20 μg of DNase-free RNase and stained with propidium iodide according to instructions of the manufacturer. Samples were analyzed on a FACSCAN™ (Becton, Dickinson and Company, Franklin Lakes, N.J., United States of America) and G0-G1, S, and G2-M fractions were segmented, and apoptotic (sub-G1 DNA content) and rereplicating (>G2/M DNA content) fractions were determined using FLOWJO® (FLOWJO, LLC, Ashland, Oreg., United States of America) and ModFit (Verity Software House, Topsham, Me., United States of America) software.

Cal27 cells = test: Rereplication by propidium iodide staining and FACS (HNSCC); format: cell-based, human
Experimental: The effect of pevonedistat treatment or CDT2, geminin, or EMI1 knockdown on the cell cycle (and induction of DNA rereplication) was assessed by flow cytometry with propidium iodide (PI) staining. […] Cells were collected, washed with PBS, and resuspended in ethanol (75%). Cells were subsequently treated with 20 μg of DNase-free RNase and stained with PI following the manufacturer's protocol. FACSCAN™ (Becton, Dickinson and Company, Franklin Lakes, N.J., United States of America) was used to analyze the samples and G0-G1, S, and G2-M fractions were segmented. Subsequent analysis using FLOWJO® (FLOWJO, LLC, Ashland, Oreg., United States of America) and ModFit (Verity Software House, Topsham, Me., United States of America) software was used to determine apoptotic and re-replicating fractions. Where indicated, Cal27 and FaDu cells were treated with pevonedistat for 48 hours and pulsed with BrdU (10 nM) for 1 hour in the dark prior to harvesting. Cells were washed with PBS and staining solution before fixation and permeabilization steps according to the manufacturer's protocol. Cells were subsequently stained with anti-BrdU antibody solution for 20 minutes at room temperature, washed, and stained with 7-AAD for 30 minutes at 4° C. Cells were resuspended in 1 ml of staining buffer and stored at 4° C. overnight before analysis. Sampled were analyzed on a FACSCAN™ (Becton, Dickinson and Company, Franklin Lakes, N.J., United States of America), and different fractions of BrdU positive cells were determined using FLOWJO® (FLOWJO, LLC, Ashland, Oreg., United States of America) and ModFit (Verity Software House, Topsham, Me., United States of America) software.

DM93 cells = test: Cell cycle distribution and rereplication by propidium iodide staining and FACS; format: cell-based, human; conditions: for DM93 cells exhibiting >4N DNA content / Percent Cells in S and G2/M / Percent Cells in sub-G1: 1 μM pevonedistat; for Percent Cells in S and G2/M / Percent Cells in sub-G1 / Percent of Cells in S and G2/M / Percent of Cells in sub-G1: DM93 cells; for rereplication after transient exposure and washout: analyzed 48 hours later
Experimental: as §1, with “Briefly, asynchronous melanoma cell lines were treated with pevonedistat or vemurafenib, or transfected with si-CDT1, si-CDT2, si-SET8, si-p21, sigeminin, si-EMI1, or si-GL2 for a time ranging from 24 to 96 hours.” left out

DM13 cells = test: Cell proliferation/viability MTT assay; format: cell-based; conditions: Homo sapiens, 96 hours
Experimental: (§2) Proliferation and viability of cultured cells was measured by CELLTITER96® Non-radioactive Cell Proliferation Assay (Promega Corporation; Madison, Wis., United States of America). Briefly, various wild type and mutant BRAF melanoma cells were seeded in 96 well plates and treated with pevonedistat, vemurafenib, or the combination pevonedistat and vemurafenib at various concentrations. Control cells were treated with DMSO. 96 hours following treatment, cells were stained with the dye solution according to the manufacturer's protocol. Absorbance was recorded at 570 nm and growth curves were established. To test the effect of transient exposure of melanoma cells to pevonedistat on rereplication and growth inhibition, washout experiments were conducted where melanoma cells or PIG3V melanocytes were treated with […] pevonedistat for different times (4, 8, 12, and 24 hours) before the drug was washed out by washing the cells twice with PBS, and adding drug-free fresh growth media to cells. Cells were counted every 24 hours using a COUNTESS™ Automated Cell Counter (INVITROGEN™, Carlsbad, Calif., United States of America), and harvested at the indicated times for PI staining and FACS analysis (cell cycle profile) or for immunoblotting.

VMM1 melanoma cells = test: Cell proliferation/viability MTT assay; format: cell-based; conditions: Homo sapiens, 96 hours
Experimental: as §2

VMM39 cells = test: Cell proliferation/viability MTT assay; format: cell-based; conditions: Homo sapiens, 96 hours
Experimental: as §2

[2] = 24 hours, 0.025 μM pevonedistat
[3] = 24 hours, 0.100 μM pevonedistat
[4] = 24 hours, 0.500 μM pevonedistat (first row so printed, r9)
[5] = 24 hours, 0.500 μM pevonedistat (r11)
[6] = 24 hours, 0.750 μM pevonedistat
[7] = 24 hours, 1.000 μM pevonedistat
[8] = 24 hours, 2.000 μM pevonedistat

Structure (SMILES): NS(=O)(=O)OCC1CC(n2ccc3c(NC4CCc5ccccc54)ncnc32)CC1O [pevonedistat, ((1S,2S,4R)-4-(4-((1S)-2,3-Dihydro-H-inden-1-ylamino)-7H-pyrrolo(2,3-d)pyrimidin-7-yl)-2-hydroxycyclopentyl)methyl sulphamate]
- rereplication [1]: less than 3%
- cells undergoing rereplication (Cal27 cells; Cal27, 40 nM pevonedistat 48 hours plus 2 Gy at the 24 hour time point): 32.9%
- cells undergoing rereplication (Cal27 cells; Cal27, 40 nM pevonedistat for 48 hours): 16.8%
- cells exhibiting >4N DNA content (Cal27 cells; Cal27, 100 nM pevonedistat, PI staining): 61%
- DM93 cells exhibiting >4N DNA content (DM93 cells; by 72 hours of treatment): 68%
- DM93 cells exhibiting >4N DNA content (DM93 cells; within 24 hours): 18%
- cells undergoing rereplication (DM93 cells; DM93, 1 μM pevonedistat for 48 hours): 45%
- Percent of Cells in S and G2/M at 24 hours (DM93 cells; DM93, 1 μM pevonedistat, 24 hours): 27.2%
- Percent of Cells in S and G2/M at 72 Hours (DM93 cells; DM93, 1 μM pevonedistat, 72 hours): 59.2%
- cells undergoing rereplication (DM93 cells; DM93, 72 hours post-treatment): 60%
- lowest drug concentration at which rereplication was observed (DM93 cells; DM93, analyzed at 24 hours): 500 nM
- cells with sub-G1 DNA content (DM93 cells; DM93, pevonedistat, 72 hours): ~7%
- Percent Cells in S and G2/M (DM93 cells; 3 hours): 4.05%
- Percent Cells in sub-G1 (DM93 cells; 3 hours): 1.94%
- Percent Cells in S and G2/M (DM93 cells; 6 hours): 13%
- Percent Cells in sub-G1 (DM93 cells; 6 hours): 0.49%
- Percent Cells in S and G2/M (DM93 cells; 24 hours): 17%
- Percent Cells in sub-G1 (DM93 cells; 24 hours): 1.4%
- Percent Cells in S and G2/M (DM93 cells; 48 hours): 64.7%
- Percent Cells in sub-G1 (DM93 cells; 48 hours): 2.08%
- Percent Cells in S and G2/M (DM93 cells; 72 hours): 68.3%
- Percent Cells in sub-G1 (DM93 cells; 72 hours): 7.08%
- Percent of Cells in S and G2/M (DM93 cells; [2]): 0.57%
- Percent of Cells in sub-G1 (DM93 cells; [2]): 1.72%
- Percent of Cells in S and G2/M (DM93 cells; [3]): 2.21%
- Percent of Cells in sub-G1 (DM93 cells; [3]): 5.62%
- Percent of Cells in S and G2/M (DM93 cells; [4]): 1.11%
- Percent of Cells in sub-G1 (DM93 cells; [4]): 1.61%
- Percent of Cells in S and G2/M (DM93 cells; [5]): 18.1%
- Percent of Cells in sub-G1 (DM93 cells; [5]): 4.49%
- Percent of Cells in S and G2/M (DM93 cells; [6]): 47.4%
- Percent of Cells in sub-G1 (DM93 cells; [6]): 2.05%
- Percent of Cells in S and G2/M (DM93 cells; [7]): 56.6%
- Percent of Cells in sub-G1 (DM93 cells; [7]): 1.21%
- Percent of Cells in S and G2/M (DM93 cells; [8]): 66%
- Percent of Cells in sub-G1 (DM93 cells; [8]): 0.53%
- rereplication after transient exposure and washout (DM93 cells; treated 12 hours): 18%
- rereplication after transient exposure and washout (DM93 cells; treated 24 hours): 60%
- IC50 (DM13 cells): 0.04 µM
- IC50 (VMM1 melanoma cells): 0.33 µM
- IC50 (VMM39 cells): 0.035 µM
